# According to patent US5041426A, “Immune system enhancing 3-β-d-ribofuranosylthiazolo[4,5-d]pyridimine nucleosides and nucleotides” (priority 1988, dated 1991):
# Values joined by “and” are separate entries in the source; they are usually repeats but may differ in a detail not shown here. Identical values can stand only once. Like-named read-outs stand apart in the source and are kept apart here.
# Assays:
# [1] = tested on: K562 tumor cells; test: In vitro augmentation of human natural killer cell activity (PBMNC, 51Cr release); format: cell-based; conditions: Table 22
# Description: The natural killer cell activity in human cells was also measured. In conducting these tests peripheral blood mononuculear cells (PBMNC) were isolated on Ficoll-Hypaque gradient, washed three times in Hanks and re-suspended in RPMI-1640 containing 10% human AB serum as described in Rosenberg, S. A.: Journal American Medical Association, 256:3117, 1986 and the above referred to reference to Djeu, et al. Peripheral blood mononuclear cells (PBMNC) from eleven different donors were treated with compound 7 as described in Djeu, et al. as well as Sharma, B., Odom, L. F.: Cancer Immunol. Immunother. 7.93, 1979, and Sharma, B., Odom, L. F.: Cancer Research 44:3258, 1984.
# The PBMNC cells were incubated with compound 7 at 37° C. for 20 to 68 hours in a 5% CO2 humid atmosphere and after incubation the cytotoxicity was determined against K562 tumor cells.
# ^a Peripheral blood mononuclear cells were treated with 0.05 - 0.4 mM
# concentration of compound 7 in RPM11640 containing 10% human AB serum for
# 20 to 68 hours. After the treatment, effector cells were tested against
# K562 target cells in 4 hour ^51 Cr release assay as described in
# Sharma et al. above. The data shown here represent the maximum response.
# K562 target cells in 4 hour ^51 Cr release assay as previously
# described above in Sharma et al. The data represent the maximum response.
# Other Nucleosides and Nucleotides of the invention were tested for their activity in human natural killer cells […] as per example 33 above.
# [2] = tested on: YAC-1 cells; test: In vitro potentiation of murine natural killer cell activity (mouse spleen cells, 51Cr release); format: cell-based
# Description: After incubation the cytotoxicity of the treated and untreated cells was determined against YAC-1 cells.
# ^a Spleen cells from mice were treated with 0.05 mM concentration of
# amino acids and 5 × 10^-5 M Mercaptoethanol. The effector cells
# were then tested for their cytotoxic activity against YAC1 target cells i
# 4 hr ^51 Cr release assay.
# ^a Spleen cells from mice were incubated in the absence and presence
# of various compounds. After incubation, cells were suspended in complete
# medium and then their cytotoxic activity was determined against YAC1
# target cells as described in the text
# [3] = tested on: YAC-1 cells; test: as above; format: cell-based; conditions: Table 21; 0.5 mM
# [4] = tested on: San Angelo Virus; format: in vivo, mouse; conditions: saline at -24 h, of mice that died
# [5] = tested on: Influenza B Virus; test: Antiviral activity against Influenza B virus infection in mice; format: in vivo, mouse
# Description: Compound 7 was tested therapeutically against Influenza B Virus Infection in Mice. In addition to a saline control Ribavirin, a known antiviral, was utilized for test purposes.
# hours previrus inoculation.
# ^c p < .001 twotailed ttest.
# [6] = tested on: San Angelo Virus; format: in vivo, mouse; conditions: 200 mg/kg/day; half-daily doses twice a day for 7 days; Time (21 days)
# [7] = tested on: Banzi Virus; format: in vivo, mouse; conditions: placebo at -24 h, of mice that died
compound,measurement,setting,value
"O=c1[nH]c(=O)c2sc(=O)n([C@@H]3O[C@H](CO)[C@@H](O)[C@H]3O)c2[nH]1 [Compound 8, 3-β-D-Ribofuranosylthiazolo[4,5-d]pyrimidine-2,5,7(4H,6H)-trione]",% Natural Killer Cell Cytotoxicity,[1]; 0.2 mM,5%
"O=C(OC[C@H]1O[C@@H](n2c(=O)sc3c(=O)[nH]cnc32)[C@H](OC(=O)c2ccccc2)[C@@H]1OC(=O)c1ccccc1)c1ccccc1 [Compound 9, 3-(2,3,5-Tri-O-benzoyl-β-D-Ribofuranosyl)thiazolo[4,5-d] pyrimidine-2,7(6H)-dione]",% Natural Killer Cell Cytotoxicity,[1]; 0.05 mM,6%
same,% Natural Killer Cell Cytotoxicity,[1]; 0.2 mM,43%
same,% Natural Killer Cell Cytotoxicity,"[2]; Table 21, 0.05 mM",3% and 2% and 0.31%
same,% Natural Killer Cell Cytotoxicity,[3],13% and 6.5%
Nc1nc2c(sc(=O)n2[C@@H]2O[C@@H]3COP(=O)(O)O[C@H]3[C@H]2O)c(=O)[nH]1 [Compound 12],% Natural Killer Cell Cytotoxicity,[1]; 0.2 mM,43%
same,% Natural Killer Cell Cytotoxicity,"[1]; 0.4 mM, Monophosphate Ammonium Salt",39% and 22%
"Nc1nc2c(sc(=S)n2[C@@H]2O[C@H](CO)[C@@H](O)[C@H]2O)c(=O)[nH]1 [Compound 16, 5-Amino-2-thioxo-3-β -D-ribofuranosylthiazolo[4,5-d]pyrimidin-7(6H)-one]",% Natural Killer Cell Cytotoxicity,[3],38%
"Nc1nc2c(sc(=O)n2[C@@H]2O[C@H](CO)[C@@H](O)[C@H]2O)c(=S)[nH]1 [Compound 19, 5-Amino-7(6H)-thioxo-3-β-D-ribofuranoxylthiazolo[4,5-d]pyrimidin-2-one]",% Natural Killer Cell Cytotoxicity,[1]; 0.2 mM,7%
NC(=O)c1ncn([C@@H]2O[C@H](CO)[C@@H](O)[C@H]2O)n1 [Ribavirin],Mean Survival Time,[4]; Ribavirin 25 mg/kg/day days 0-6,8.1 ± 0.7 days
same,Mean Survival Time,[4]; Ribavirin 50 mg/kg/day days 0-6,9.0 ± 1.2 days
same,Mean Survival Time,"[5]; 100 mg/kg/day, half-daily doses twice a day for 7 days",8.0 ± 0.0 days
same,efficacy against influenza B (in words),[5]; Table 12,significant antiviral activity
same,Mean Survival Time,[6],12.3 ± 2.9 days
same,Mean Survival Time,[7]; Ribavirin 100 mg/kg days 0-6,8.5 ± 1.0 days
same,Mean Survival Time,[7]; Ribavirin 200 mg/kg days 0-6,9.1 ± 0.8 days
Poly I:C [reference compound],% Natural Killer Cell Cytotoxicity,"[2]; C57BL/6J spleen cells, treatment 0 h, compound 7 at 0.05 mM",18%
same,% Natural Killer Cell Cytotoxicity,"[2]; C57BL/6J spleen cells, treatment 0 h, compound 7 at 0.05 mM, listed as Poly I:",22%
same,% Natural Killer Cell Cytotoxicity,"[2]; C57BL/6J spleen cells, treatment 20 h, compound 7 at 0.05 mM",13%
same,% Natural Killer Cell Cytotoxicity,"[2]; C57BL/6J spleen cells, treatment 20 h, compound 7 at 0.05 mM, listed as Poly I:",6%
same,% Natural Killer Cell Cytotoxicity,"[2]; C57BL/6J spleen cells, treatment 44 h, compound 7 at 0.05 mM",14%
same,% Natural Killer Cell Cytotoxicity,"[2]; C57BL/6J spleen cells, treatment 44 h, compound 7 at 0.05 mM, listed as Poly I:",13%
same,% Natural Killer Cell Cytotoxicity,"[2]; CBA/CaJ spleen cells, treatment 0 h, compound 7 at 0.05 mM",14.5% and 22%
same,% Natural Killer Cell Cytotoxicity,"[2]; CBA/CaJ spleen cells, treatment 20 h, compound 7 at 0.05 mM",18% and 31%
same,% Natural Killer Cell Cytotoxicity,"[2]; CBA/CaJ spleen cells, treatment 44 h, compound 7 at 0.05 mM",19% and 9%
